From patent publication US5273974A, “Condensed heterocyclic compounds, their production and use” (priority 1990, dated 1993) come the findings set out here.

The term IC50 denotes the concentration that gives 50% inhibition. A lower IC50 goes with higher potency.

Structures are written as SMILES. Where a name gives a salt, the structure may show the parent alone.

For this assay, the target named is T1, Acetylcholinesterase (Rattus norvegicus, UniProt P37136).
T1 construct: S1 fraction of a homogenate of male Wistar rat cerebral cortex; from tissue; host or cells: male Wistar rat cerebral cortex, S1 fraction of homogenate
T1 sequence (P37136 32-614): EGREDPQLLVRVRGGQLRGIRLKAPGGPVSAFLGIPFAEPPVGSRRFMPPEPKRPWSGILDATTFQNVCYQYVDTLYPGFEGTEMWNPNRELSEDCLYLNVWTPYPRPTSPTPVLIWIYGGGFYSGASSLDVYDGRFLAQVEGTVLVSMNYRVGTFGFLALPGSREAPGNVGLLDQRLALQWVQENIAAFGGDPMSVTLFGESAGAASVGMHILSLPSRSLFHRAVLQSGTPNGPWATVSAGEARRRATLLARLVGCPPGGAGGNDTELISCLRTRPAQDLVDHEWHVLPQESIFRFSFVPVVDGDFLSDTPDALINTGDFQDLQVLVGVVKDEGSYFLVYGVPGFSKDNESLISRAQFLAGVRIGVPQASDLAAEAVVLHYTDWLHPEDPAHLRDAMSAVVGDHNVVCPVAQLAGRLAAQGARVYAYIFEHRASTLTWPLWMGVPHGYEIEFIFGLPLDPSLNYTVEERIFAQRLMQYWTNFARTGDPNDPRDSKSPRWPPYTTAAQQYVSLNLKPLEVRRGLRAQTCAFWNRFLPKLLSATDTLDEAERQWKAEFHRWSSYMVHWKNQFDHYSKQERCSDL
The assay can be described thus: Cholinesterase inhibitory activity assayed with (acetyl-[3H])-acetylcholine (S1 fraction of male Wistar rat cerebral cortex homogenate). The assay is classed as biochemical. The note with it: (acetyl-[3H])-acetylcholine substrate, 30 minutes incubation.
Protocol: The cholinesterase inhibitory activity of the compound of the present invention was assayed with (acetyl-[3H])-acetylcholine. Thus, using the S1 fraction of a homogenate of male Wistar rat cerebral cortex as the cholinesterase source, (acetyl-[3H])-acetylcholine and the compound of the invention were added as the substrate and the test substance, respectively, and the mixture was incubated for 30 minutes. After the reaction was terminated, a toluene-based scintillant was added and, after shaking, the reaction product [3H]-acetic acid which was transferred to the toluene layer was determined with a scintillation counter to estimate the cholinesterase activity.
`O=C(CCC1CCN(Cc2ccccc2)CC1)c1ccc2c(c1)CCO2` [Example 21, 2,3-Dihydro-5-[1-oxo-3-[1-(phenylmethyl)piperidin-4-yl]propyl]benzofuran hydrochloride] came in with an IC50 of 28 nM.
Regarding `CN1CCCCc2ccc(C(=O)CCC3CCN(Cc4ccccc4)CC3)cc21` [Example 19-17], the IC50 came to 81 nM.
The result for `O=C(CCC1CCN(Cc2ccccc2)CC1)c1ccc2c(c1)CCNCC2` [Example 22, 7-[1-Oxo-3-[1-(phenylmethyl)piperidin-4-yl]propyl]-2,3,4,5-tetrahydro-1H-3-benzazepine dihydrochloride] reads 7.6 nM; that for `O=C(CCC1CCN(Cc2ccccc2)CC1)c1ccc2c(c1)NCC2` [Example 25, 2,3-Dihydro-6-[1-oxo-3-[1-(phenylmethyl)piperidin-4-yl]propyl]-1H-indole fumarate], 113 nM.
In turn, `O=C(CCC1CCN(Cc2ccccc2)CC1)c1ccc2c(c1)CCN2CCc1ccccc1` [Example 19-15] registered an IC50 of 28 nM.
The molecule `O=C(CCC1CCN(Cc2cccc(F)c2)CC1)c1ccc2c(c1)NCCCC2` [Example 19-21] displayed an IC50 of 145 nM.
As to `O=C(CCC1CCN(Cc2ccccc2)CC1)c1ccc2c(c1)CCCN2Cc1ccccc1` [Example 10, 1-(Phenylmethyl)-6-[1-oxo-3-[1-(phenylmethyl)piperidin-4-yl]propyl]-1,2,3,4-tetrahydroquinoline fumarate], it took 160 nM to reach half-maximal inhibition (IC50).
The result for `CN1CCCc2cc(C(=O)CCC3CCN(Cc4ccccc4)CC3)ccc21` [Example 4, 1-Methyl-6-[3-[1-(phenylmethyl)piperidin-4-yl]-1-oxopropyl]-1,2,3,4-tetrahydroquinoline dihydrochloride] reads 10 nM; that for `CN1CCCc2ccc(C(=O)CCC3CCN(Cc4ccccc4)CC3)cc21` [Example 8-B, 1-methyl-7-[1-oxo-3-[1-(phenylmethyl)piperidin-4-yl]propyl]-1,2,3,4-tetrahydroquinoline fumarate], 36 nM.
Molecule `O=C(CCC1CCN(Cc2ccccc2)CC1)c1ccc2c(c1)CCN2` [Example 13, 2,3-Dihydro-5-[1-oxo-3-[1-(phenylmethyl)piperidin-4-yl]propyl]-1H-indole fumarate] gave an IC50 of 20 nM.
Take `CCN1CCc2cc(C(=O)CCC3CCN(Cc4ccccc4)CC3)ccc21` [Example 19-11]: the IC50 was 11 nM.
Consider `O=C(CCC1CCN(Cc2ccccc2)CC1)c1ccc2c(c1)CCN2Cc1ccccc1` [Example 15, 2,3-Dihydro-5-[1-oxo-3-[1-(phenylmethyl)piperidin-4-yl]propyl]-1-(phenylmethyl)-1H-indole fumarate], for which the midpoint of inhibition, the IC50, lay at 68 nM.
The result for `CC(=O)N1CCCc2cc(C(=O)CCC3CCN(Cc4ccccc4)CC3)ccc21` [Example 16, 1-Acetyl-6-[1-oxo-3-[1-(phenylmethyl)piperidin-4-yl]propyl]-1,2,3,4-tetrahydroquinoline fumarate] reads 14 nM; that for `CCCN1CCc2cc(C(=O)CCC3CCN(Cc4ccccc4)CC3)ccc21` [Example 19-12], 22 nM.
The value for `O=C(CCC1CCN(Cc2ccccc2)CC1)c1ccc2c(c1)NCCCCC2` [Example 27, 9-[1-Oxo-3-[1-(phenylmethyl)piperidin-4-yl]propyl]-1,2,3,4,5,6-hexahydro-1-benzazocine fumarate] was 127 nM; that for `Cc1cccc(CN2CCC(CCC(=O)c3ccc4c(c3)CCN4)CC2)c1` [Example 19-7] was 50 nM; that for `CN1CCCc2cc(C(=O)CCC3CCN(Cc4ccccc4)CC3)ccc21` [Example 8-A, 1-Methyl-6-[1-oxo-3-[1-(phenylmethyl)piperidin-4-yl]-propyl]-1,2,3,4-tetrahydroquinoline fumarate] was 24 nM.
As to `O=C(CCC1CCN(Cc2cccc(F)c2)CC1)c1ccc2c(c1)CCN2` [Example 19-8], the IC50 stood at 16 nM.
The result for `CCCCN1CCc2cc(C(=O)CCC3CCN(Cc4ccccc4)CC3)ccc21` [Example 19-13] reads 29 nM.
In turn, `O=C(CCC1CCN(Cc2ccccc2)CC1)c1ccc2c(c1)CCCN2` [Example 2, 6-[1-Oxo-3-[1-(phenylmethyl)piperidin-4-yl]propyl]-1,2,3,4-tetrahydroquinoline dihydrochloride] displayed an IC50 of 14 nM.
Molecule `CN1CCc2cc(C(=O)CCC3CCN(Cc4ccccc4)CC3)ccc21` [Example 14, 2,3-Dihydro-1-methyl-5-[1-oxo-3-[1-(phenylmethyl)-piperidin-4-yl]propyl]-1H-indole fumarate] came in with an IC50 of 10 nM.
In turn, `O=C(CCC1CCN(Cc2ccccc2)CC1)c1ccc2c(c1)CCCCN2` [Example 19-20] gave an IC50 of 125 nM.
As for `CN1CCc2ccc(C(=O)CCC3CCN(Cc4ccccc4)CC3)cc2CC1` [Example 23, 3-Methyl-7-[1-oxo-3-[1-(phenylmethyl)piperidin-4-yl]-propyl-2,3,4,5-tetrahydro-1H-3-benzazepinedihydrochloride], the IC50 was 6.5 nM.
Molecule `CCCCCN1CCc2cc(C(=O)CCC3CCN(Cc4ccccc4)CC3)ccc21` [Example 19-14] returned an IC50 of 47 nM.
`O=C(CCC1CCN(Cc2ccccc2)CC1)c1ccc2c(c1)CCCN2Cc1ccccc1` [Example 3, 1-(Phenylmethyl)-6-[3-[1-(phenylmethyl)piperidin-4-yl]-1-oxopropyl]-1,2,3,4-tetrahydroquinoline dihydrochloride] displayed an IC50 of 120 nM.
The molecule `O=C(CCC1CCN(Cc2ccccc2)CC1)c1ccc2c(c1)NCCC2` [Example 6-B, 7-[1-Oxo-3-[1-(phenylmethyl)piperidin-4-yl]propyl]-1,2,3,4-tetrahydroquinoline fumarate] showed an IC50 of 54 nM.
On to `O=C(CCC1CCN(Cc2ccccc2)CC1)c1ccc2c(c1)CCCN2` [Example 6-A, 6-[1-Oxo-3-[1-(phenylmethyl)piperidin-4-yl]propyl]-1,2,3,4-tetrahydroquinoline fumarate], for which the IC50 is 54 nM.
On to `O=C(CCC1CCN(Cc2ccccc2)CC1)c1ccc2c(c1)NCCCC2` [19-16], for which 102 nM corresponded to half-maximal inhibition (IC50).
